Patent publication US6723716B1, “7-acylamino-3-heteroarylthio-3-cephem carboxylic acid antibiotics and prodrugs thereof” (Essential Therapeutics, Inc., priority 1999, dated 2004)
≈ marks a conversion by molar mass, not a printed value.

Tested on: S. aureus Col8A (Meth^S)(lac^−)
Assay: Broth microdilution MIC (NCCLS)
Assay type: cell-based
Conditions: Staphylococcus aureus
Outline: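 Mueller-Hinton broth microdilution with 2-fold serial dilutions and a final inoculum of 5×10^5 CFU/mL. Staphylococci came from early-log cultures (1:10 regrowth 1 h, then 1:1000); enterococci came from overnight cultures diluted 1:333 (E. faecium) or 1:666 (E. faecalis). Plates were incubated 24 h at 35° C; MIC was the lowest concentration preventing growth.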

Work on NCCSCc1cnccc1SC1=C(C(=O)O)N2C(=O)[C@@H](NC(=O)/C(=N\O)c3cccc(N)n3)[C@H]2SC1 [Cmpd 24, (7R)-7-[(Z)-2-(2-aminopyrid-6-yl)-2-(hydroxyimino)acetamido]-3-[3-(2-aminoethylthiomethyl)pyrid-4-ylthio]-3-cephem-4-carboxylic acid] yielded an MIC of 0.5 µg/mL (≈ 0.89 µM).
